In patent US20240269138A1, “MMP13 AS A THERAPEUTIC TARGET FOR ALLERGIC INFLAMMATORY DISEASES” (The General Hospital Corporation, priority 2021, published 2024):

What was measured:
[1] = tested on: HDM-induced allergic airway inflammation; experiment: HDM-induced allergic airway inflammation (mouse model of asthma), intraperitoneal inhibitor; assay type: in vivo, C57BL/6 mice; details: for total BAL leukocyte numbers / histologically detectable changes in the lung tissue sections: 50 mg/kg intraperitoneally on days 19 and 20; for total BAL leukocyte numbers: BAL on day 21, Diff-Quik; for histologically detectable changes in the lung tissue sections: lungs on day 21, H&E and PAS; for effectiveness compared with dexamethasone: inhibitor 50 mg/kg vs dexamethasone 1 mg/kg, intraperitoneally, days 19 and 20; for inflammation in a mouse model of asthma (overall): systemic (intraperitoneal) administration
Method: C57BL/6 mice were subjected to intranasal instillation of control PBS or HDM as in FIGS. 5A-5D. Vehicle (DMSO), dexamethasone (1 mg/kg), and the MMP13 inhibitors CL82198 (MMP13i Inh1; 50 mg/kg) and DB04760 (CAS 544678-85-5; MMP13i Inh2; 50 mg/kg) were administered intraperitoneally (n=3, 3, 4, and 2 per group, respectively) on days 19 and 20. BAL and lungs of PBS- and HDM-challenged mice were prepared for analysis as in FIGS. 5A-5D. (FIG. 6A and FIG. 6B) BAL cells were analyzed by Diff-Quik staining (FIG. 6A). The numbers of total BAL cells and the indicated types of BAL cells were determined from Diff-Quik-stained cell images and are shown as means±SEM (FIG. 6B). *, P<0.05 (two-tailed unpaired Student's t test). (FIG. 6C and FIG. 6D) Lung sections were analyzed by H&E staining (FIG. 6C) and PAS staining (FIG. 6D). Mice were subjected to intranasal instillation of HDM (D. farinae) extract (XPB81D3A25; Stallergenes Greer) in phosphate-buffered saline (PBS) on days 0, 2, 5, 7, 9, 12, 14, 16 and 19. The amounts of HDM extract administered range between 1 μg and 10 μg per animal; the administered amount for each batch was determined by seeking a condition for BAL eosinophils of 2-5×10^5 cells. PBS was instilled as a control. Dexamethasone and MMP13 inhibitors were injected intraperitoneally (1 mg/kg and 50 mg/kg, respectively) on days 19 and 20. BAL and lungs of PBS- and HDM-challenged mice were prepared on day 21 for analysis. Mouse skin and lung tissues were fixed with formalin and embedded in paraffin. Tissue sections were analyzed by hematoxylin and eosin (H&E) and Periodic acid-Schiff (PAS) staining or by immunofluorescence analysis using primary antibodies in conjunction with Alexa Fluor 594- or fluorescein isothiocyanate-conjugated secondary antibodies (Thermo Fisher Scientific) and Hoechst 33342 (Sigma). Primary antibodies specific to the following antigens were used in immunofluorescence analysis after 1:100 to 1:200 dilution: CD3 (SP7; Abcam), MBP (2000-124; Mayo Clinic), and MMP13 (ab39012; Abcam). Cytospins of BAL cells were analyzed by Diff-Quik staining. Data values are expressed as means±SEM. P values were obtained with the unpaired two-tailed Student t test with Welch's correction.

MMP13 = MMP13 (Homo sapiens, UniProt P45452); details: fill the S1′ pocket of MMP13 but cannot fit those of other MMPs; cited from earlier work
[2] = tested on: OVA-induced allergic dermatitis; experiment: OVA-induced allergic dermatitis (mouse model of atopic dermatitis), topical inhibitor; assay type: in vivo, C57BL/6 mice; details: for inflammation in a mouse model of atopic dermatitis (overall): topical administration; for OVA-induced dermal thickening (edema formation) / OVA-induced epidermal thickening / OVA-induced T cell infiltration (CD3+ T cell density) / OVA-induced eosinophil infiltration (MBP+ eosinophil density): topical, 125 μl of 50 mM solution per cm^2 concurrently with OVA challenge, skin on day 21; for OVA-induced dermal thickening (edema formation) / OVA-induced epidermal thickening: H&E; for OVA-induced T cell infiltration (CD3+ T cell density) / OVA-induced eosinophil infiltration (MBP+ eosinophil density): immunostaining
Method: C57BL/6 mice were sensitized to OVA and challenged with control SAL or OVA as in FIGS. 1A-1G. Vehicle (water), the p38α inhibitor SCIO469 (p38αi), and the MMP13 inhibitor DB04760 (CAS 544678-85-5; MMP13i) were administered topically to the challenged skin site (125 μl of 50 mM solution per cm^2; n=10 per group) concurrently with SAL or OVA. SAL- and OVA-challenged skin was prepared for analysis as in FIGS. 1A-1G. (FIGS. 4A-4C) Skin sections were analyzed by H&E staining (FIG. 4A). Epidermal and dermal thickness (FIG. 4B and FIG. 4C, respectively) was determined from H&E-stained skin images and are shown as means±SEM. *, P<0.05; **, P<0.01 (two-tailed unpaired Student's t test). (FIGS. 4D-4G) Skin sections were analyzed by immunostaining/counterstaining for the indicated molecules (FIG. 4D and FIG. 4F). Solid and dotted line, epidermal margins and the epidermal-dermal boundary, respectively. CD3^+ T cell and MBP^+ eosinophil density (FIG. 4E and FIG. 4G, respectively) was determined on the basis of fluorescence signal-bearing cell numbers per image field and is shown as means SEM. **, P<0.01; ***, P<0.001 (two-tailed unpaired Student's t test). For allergen sensitization, OVA (Sigma) and alum adjuvant (Imject; Thermo Fisher Scientific) were combined in saline (0.9% sodium chloride; SAL) to constitute an inoculum (1 mg/ml and 100 mg/ml, respectively) and injected intraperitoneally into mice (200 μl per animal) on day 0 and 7. To elicit dermatitis in OVA-sensitized mice, shaved dorsal skin was subjected to 15 strokes of tape stripping (Tegaderm; 3M) and then challenged with OVA on days 14, 16 and 19. For this epicutaneous challenge, 100 μl of OVA (1 mg/ml in SAL) was applied to cotton gauze (1 cm×1 cm) placed on tape-stripped skin; 100 μl of SAL was applied as a control. For topical administration of p38α and MMP13 inhibitors, 125 μl of inhibitor solution (50 mM) was applied to skin sites concurrently with SAL or OVA. Challenged skin was sampled on day 21 for analysis. Mouse skin and lung tissues were fixed with formalin and embedded in paraffin. Tissue sections were analyzed by hematoxylin and eosin (H&E) and Periodic acid-Schiff (PAS) staining or by immunofluorescence analysis using primary antibodies in conjunction with Alexa Fluor 594- or fluorescein isothiocyanate-conjugated secondary antibodies (Thermo Fisher Scientific) and Hoechst 33342 (Sigma). Primary antibodies specific to the following antigens were used in immunofluorescence analysis after 1:100 to 1:200 dilution: CD3 (SP7; Abcam), MBP (2000-124; Mayo Clinic), and MMP13 (ab39012; Abcam). Cytospins of BAL cells were analyzed by Diff-Quik staining. Data values are expressed as means±SEM. P values were obtained with the unpaired two-tailed Student t test with Welch's correction.

Row | Compound | total BAL leukocyte numbers [1] | histologically detectable changes in the lung tissue sections [1] | effectiveness compared with dexamethasone [1] | inflammation in a mouse model of asthma (overall) [1] | selectivity for MMP13 over other MMPs (MMP13) | inflammation in a mouse model of atopic dermatitis (overall) [2] | OVA-induced dermal thickening (edema formation) [2] | OVA-induced epidermal thickening [2] | OVA-induced T cell infiltration (CD3+ T cell density) [2] | OVA-induced eosinophil infiltration (MBP+ eosinophil density) [2]
1 | O=C(NCCCCN1CCOCC1)c1cc2ccccc2o1 [CL82198] | substantially reduced | prevented | superior to that of dexamethasone | suppresses inflammation | almost exclusively selective for MMP13 | – | – | – | – | –
2 | Cc1cc(CNC(=O)c2cc(C(=O)NCc3ccc(F)c(C)c3)ncn2)ccc1F [DB04760] | substantially reduced | prevented | superior to that of dexamethasone | suppresses inflammation | – | suppresses inflammation | trend of decrease | significantly reduced | significantly reduced | trend of decrease
3 | C[C@@H]1CN(Cc2ccc(F)cc2)[C@@H](C)CN1C(=O)c1cc2c(C(=O)C(=O)N(C)C)cn(C)c2cc1Cl [SCIO469] | – | – | – | – | – | suppresses inflammation | significant decrease | significant decrease | significant decrease | significant decrease
